Consider 3 compounds from ChEMBL document CHEMBL4765296, “Purine/purine isoster based scaffolds as new derivatives of benzamide class of HDAC inhibitors” (Eur J Med Chem, 2020).

The target of one test is Histone deacetylase 5 (Homo sapiens, UniProt Q9UQL6). As to the kind of experiment: Inhibition of human recombinant HDAC5 expressed in baculovirus using fluorogenic peptide p53 residues 379-382 (RHKK(Ac)AMC) as substrate by Fluorescence analysis.
Another test addresses Histone deacetylase 9 (Homo sapiens, UniProt Q9UKV0). As to the kind of experiment: Inhibition of human recombinant HDAC9 expressed in baculovirus using fluorogenic peptide p53 residues 379-382 (RHKK(Ac)AMC) as substrate by Fluorescence analysis.
The next test addresses T1, Histone deacetylase 7 (Homo sapiens, UniProt Q8WUI4).
T1 sequence (Q8WUI4 whole entry): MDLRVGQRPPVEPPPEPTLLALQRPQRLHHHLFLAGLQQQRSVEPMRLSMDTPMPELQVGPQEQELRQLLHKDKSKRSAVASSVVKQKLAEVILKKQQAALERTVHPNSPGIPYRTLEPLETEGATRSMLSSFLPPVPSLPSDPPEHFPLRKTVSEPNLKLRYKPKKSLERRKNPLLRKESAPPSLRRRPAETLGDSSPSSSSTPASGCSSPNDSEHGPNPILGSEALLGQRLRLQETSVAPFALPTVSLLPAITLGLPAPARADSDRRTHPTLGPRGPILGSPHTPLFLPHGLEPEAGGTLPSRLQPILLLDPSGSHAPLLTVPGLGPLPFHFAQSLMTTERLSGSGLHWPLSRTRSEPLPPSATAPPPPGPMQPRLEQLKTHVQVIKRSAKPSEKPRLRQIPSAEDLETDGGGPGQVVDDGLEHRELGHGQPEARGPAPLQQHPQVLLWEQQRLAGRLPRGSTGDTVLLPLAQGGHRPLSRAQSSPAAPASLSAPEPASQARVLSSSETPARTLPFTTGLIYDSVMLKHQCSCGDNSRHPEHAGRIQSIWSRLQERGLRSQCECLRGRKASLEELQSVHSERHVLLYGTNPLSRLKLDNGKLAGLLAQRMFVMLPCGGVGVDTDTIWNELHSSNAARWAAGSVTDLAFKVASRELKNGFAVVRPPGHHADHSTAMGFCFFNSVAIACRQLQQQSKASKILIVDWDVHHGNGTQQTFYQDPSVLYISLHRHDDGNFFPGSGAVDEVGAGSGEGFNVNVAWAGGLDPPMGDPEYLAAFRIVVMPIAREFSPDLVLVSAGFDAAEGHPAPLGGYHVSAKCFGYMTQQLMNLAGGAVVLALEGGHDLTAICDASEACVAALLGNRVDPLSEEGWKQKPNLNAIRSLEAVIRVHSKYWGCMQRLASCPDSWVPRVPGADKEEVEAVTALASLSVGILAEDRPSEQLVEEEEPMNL
As to the kind of experiment: Inhibition of human recombinant HDAC7 expressed in baculovirus using fluorogenic peptide p53 residues 379-382 (RHKK(Ac)AMC) as substrate by Fluorescence analysis.

Another test concerns the target Histone deacetylase 4 (Homo sapiens, UniProt P56524). As to the kind of experiment: Inhibition of human recombinant HDAC4 expressed in baculovirus using fluorogenic peptide p53 residues 379-382 (RHKK(Ac)AMC) as substrate by Fluorescence analysis.
For test [1], the system named is MDA-MB-231. As to the kind of experiment: Antiproliferative activity against human MDA-MB-231 cells assessed as cell growth inhibition measured after 72 hrs by MTT assay. Conditions: MDA-MB-231, 72 h. The test is classed as functional, cell-based.
In another test the test system is HepG2. In words: cells. Conditions: Homo sapiens, HepG2, 72 h.
In the next test the test system is MDA-MB-468. As to the kind of experiment: Cytotoxicity in human MDA-MB-468 cells assessed as reduction in cell viability incubated for 72 hrs by MTT assay. The test is classed as functional, cell-based.
Test [2] can be described thus: Cytotoxicity against human HDACi-sensitive YCC3 cells assessed as reduction in cell growth incubated for 72 hrs by MTS assay. The test is classed as functional, cell-based. The note with it: YCC3/7, 72 h.
The next test relates to MCF7. In words: Cytotoxicity in human MCF7 cells assessed as reduction in cell viability incubated for 72 hrs by MTT assay. The test is classed as functional, cell-based.
A short description of a further test: cells. The note with it: Homo sapiens, YCC-11, 72 h.
For test [3], the system named is MDA-MB-231. In words: Induction of cell cycle arrest in human MDA-MB-231 cells assessed as reduction in population between G1 to G2/M phases at 4 uM for 24 hrs by PI staining based flow cytometry analysis. The test is classed as functional.
Test [4] deals with MDA-MB-231. In words: Induction of cell cycle arrest in human MDA-MB-231 cells assessed as reduction in population at S phase at 4 uM for 24 hrs by PI staining based flow cytometry analysis. The test is classed as functional.
In test [5] the test system is MDA-MB-231. In words: Induction of cell cycle arrest in human MDA-MB-231 cells assessed as accumulation of cells at G1 phase at 4 uM for 24 hrs in presence of nocodazole by PI staining based flow cytometry analysis. The test is classed as functional.
Test [6] relates to MDA-MB-231. As to the kind of experiment: Induction of apoptosis in human MDA-MB-231 cells assessed as increase in cleaved caspase-8 level incubated for 24 hrs by Western blot analysis. The test is classed as functional, cell-based.
Test [7] concerns MDA-MB-231. As to the kind of experiment: Induction of apoptosis in human MDA-MB-231 cells assessed as increase in cleaved PARP-1 level incubated for 24 hrs by Western blot analysis. The test is classed as functional, cell-based.
Test [8] deals with MDA-MB-231. As to the kind of experiment: Induction of apoptosis in human MDA-MB-231 cells assessed as increase in cleaved caspase-3 level incubated for 24 hrs by Western blot analysis. The test is classed as functional, cell-based.
Test [9] relates to MDA-MB-231. As to the kind of experiment: Induction of cell cycle arrest in human MDA-MB-231 cells assessed as accumulation of cells at subG1 phase at 16 uM for 48 hrs by PI staining based flow cytometry analysis. The test is classed as functional.

The source made the active and inactive calls. The calls are words filed in the database; no cut-off is given here.

Chain of Histone deacetylase 5 (Q9UQL6 whole entry, the tested form may be a part): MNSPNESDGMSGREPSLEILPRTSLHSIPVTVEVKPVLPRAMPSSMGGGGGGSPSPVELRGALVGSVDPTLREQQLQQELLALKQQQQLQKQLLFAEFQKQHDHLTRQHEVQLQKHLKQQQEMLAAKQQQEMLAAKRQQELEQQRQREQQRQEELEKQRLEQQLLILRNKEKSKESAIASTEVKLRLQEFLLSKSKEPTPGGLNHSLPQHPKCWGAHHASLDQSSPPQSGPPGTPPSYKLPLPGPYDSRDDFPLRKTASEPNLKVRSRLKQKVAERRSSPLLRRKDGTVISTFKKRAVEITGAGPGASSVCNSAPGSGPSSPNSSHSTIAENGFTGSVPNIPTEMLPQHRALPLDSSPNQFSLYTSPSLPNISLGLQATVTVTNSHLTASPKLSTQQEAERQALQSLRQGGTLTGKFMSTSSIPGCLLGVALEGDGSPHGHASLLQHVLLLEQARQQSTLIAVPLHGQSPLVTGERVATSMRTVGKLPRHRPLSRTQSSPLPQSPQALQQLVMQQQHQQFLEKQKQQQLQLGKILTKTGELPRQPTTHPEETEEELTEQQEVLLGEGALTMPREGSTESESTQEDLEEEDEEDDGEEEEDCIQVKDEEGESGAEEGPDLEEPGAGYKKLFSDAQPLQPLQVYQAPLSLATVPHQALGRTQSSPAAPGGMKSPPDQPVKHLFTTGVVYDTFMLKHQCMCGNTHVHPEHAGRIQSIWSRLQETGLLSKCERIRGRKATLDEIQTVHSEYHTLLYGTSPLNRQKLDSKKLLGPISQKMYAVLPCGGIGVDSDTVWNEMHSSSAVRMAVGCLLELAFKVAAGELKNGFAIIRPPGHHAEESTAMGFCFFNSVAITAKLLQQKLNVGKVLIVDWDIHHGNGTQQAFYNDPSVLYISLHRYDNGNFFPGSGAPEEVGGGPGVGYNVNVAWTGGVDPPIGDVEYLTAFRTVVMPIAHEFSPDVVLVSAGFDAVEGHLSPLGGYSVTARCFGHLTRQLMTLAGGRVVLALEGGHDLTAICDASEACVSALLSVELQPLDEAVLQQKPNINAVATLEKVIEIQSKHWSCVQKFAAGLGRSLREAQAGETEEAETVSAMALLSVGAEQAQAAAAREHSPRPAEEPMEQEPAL
Chain of Histone deacetylase 9 (Q9UKV0 whole entry, the tested form may be a part): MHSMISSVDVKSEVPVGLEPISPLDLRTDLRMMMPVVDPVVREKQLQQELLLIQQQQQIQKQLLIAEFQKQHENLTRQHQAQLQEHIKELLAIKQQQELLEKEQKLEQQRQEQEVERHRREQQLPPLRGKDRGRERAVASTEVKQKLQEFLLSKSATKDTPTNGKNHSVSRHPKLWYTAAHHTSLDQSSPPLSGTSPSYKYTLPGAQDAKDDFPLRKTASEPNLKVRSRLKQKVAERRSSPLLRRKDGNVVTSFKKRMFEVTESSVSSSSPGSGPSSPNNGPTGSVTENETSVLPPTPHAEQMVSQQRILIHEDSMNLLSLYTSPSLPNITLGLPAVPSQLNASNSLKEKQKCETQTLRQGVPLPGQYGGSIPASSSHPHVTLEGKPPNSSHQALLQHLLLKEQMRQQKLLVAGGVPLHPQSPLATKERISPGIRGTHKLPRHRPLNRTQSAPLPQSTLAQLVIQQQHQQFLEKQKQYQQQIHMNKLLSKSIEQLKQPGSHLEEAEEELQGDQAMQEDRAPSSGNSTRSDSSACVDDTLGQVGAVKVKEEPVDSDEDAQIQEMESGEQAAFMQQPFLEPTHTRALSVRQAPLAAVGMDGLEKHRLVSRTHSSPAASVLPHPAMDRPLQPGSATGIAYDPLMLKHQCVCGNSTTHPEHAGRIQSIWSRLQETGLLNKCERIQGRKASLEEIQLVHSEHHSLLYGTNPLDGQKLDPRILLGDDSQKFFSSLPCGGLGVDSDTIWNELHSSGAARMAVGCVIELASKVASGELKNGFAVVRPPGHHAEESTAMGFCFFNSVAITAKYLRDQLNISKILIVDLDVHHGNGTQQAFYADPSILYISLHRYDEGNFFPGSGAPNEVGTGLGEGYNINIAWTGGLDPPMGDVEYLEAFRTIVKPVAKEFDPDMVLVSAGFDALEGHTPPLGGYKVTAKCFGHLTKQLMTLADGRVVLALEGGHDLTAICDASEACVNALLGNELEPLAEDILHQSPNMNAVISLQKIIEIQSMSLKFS
Chain of Histone deacetylase 4 (P56524 whole entry, the tested form may be a part): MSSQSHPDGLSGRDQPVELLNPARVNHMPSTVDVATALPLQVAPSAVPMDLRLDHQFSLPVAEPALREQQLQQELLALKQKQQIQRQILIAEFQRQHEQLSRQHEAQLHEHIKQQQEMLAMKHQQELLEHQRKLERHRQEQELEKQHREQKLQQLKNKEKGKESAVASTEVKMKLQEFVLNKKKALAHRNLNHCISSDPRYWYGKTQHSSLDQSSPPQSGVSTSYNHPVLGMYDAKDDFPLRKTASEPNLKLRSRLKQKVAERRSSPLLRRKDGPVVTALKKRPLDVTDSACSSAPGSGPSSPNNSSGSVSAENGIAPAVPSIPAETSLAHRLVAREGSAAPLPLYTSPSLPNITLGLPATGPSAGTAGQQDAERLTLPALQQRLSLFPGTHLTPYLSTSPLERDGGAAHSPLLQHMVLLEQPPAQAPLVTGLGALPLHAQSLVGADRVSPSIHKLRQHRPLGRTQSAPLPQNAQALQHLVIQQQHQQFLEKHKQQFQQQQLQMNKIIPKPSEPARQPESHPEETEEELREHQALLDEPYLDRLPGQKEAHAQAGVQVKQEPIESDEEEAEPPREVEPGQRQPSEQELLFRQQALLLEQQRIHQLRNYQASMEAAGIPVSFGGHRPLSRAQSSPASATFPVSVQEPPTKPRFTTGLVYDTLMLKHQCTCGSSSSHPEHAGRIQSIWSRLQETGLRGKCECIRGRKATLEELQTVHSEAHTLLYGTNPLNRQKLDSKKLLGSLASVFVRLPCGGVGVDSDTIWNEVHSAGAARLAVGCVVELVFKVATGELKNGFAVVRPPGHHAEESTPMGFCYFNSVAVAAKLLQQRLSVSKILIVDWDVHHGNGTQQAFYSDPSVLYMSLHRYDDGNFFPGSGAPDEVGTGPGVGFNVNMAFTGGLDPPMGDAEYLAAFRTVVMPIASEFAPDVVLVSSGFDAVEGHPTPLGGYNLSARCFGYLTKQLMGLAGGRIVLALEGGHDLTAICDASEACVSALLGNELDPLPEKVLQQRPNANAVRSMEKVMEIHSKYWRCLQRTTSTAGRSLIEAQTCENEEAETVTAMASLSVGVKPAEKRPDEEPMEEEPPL
Description for HepG2: Antiproliferative activity against human HepG2 cells assessed as cell growth inhibition measured after 72 hrs by MTT assay

Turning to `Nc1nc(Nc2ccc(F)c(Cl)c2)c2ncn(Cc3ccc(C(=O)Nc4ccccc4N)cc3)c2n1`, the concentration for half-maximal inhibition (IC50) on Histone deacetylase 5, at Histone deacetylase 9, at Histone deacetylase 7 and at Histone deacetylase 4 was above 10 µM each time.

Take `Nc1ccc(F)cc1NC(=O)c1ccc(CNC(=O)/C=C/c2cccnc2)cc1`: the concentration for half-maximal inhibition (IC50) with MDA-MB-231 [1] was 3.6 µM; in the test on HepG2 it was above 8 µM; in test [2], 20.4 µM; in the test “cells”, 17.1 µM. In addition, the outcome in the test with MDA-MB-468 and with MCF7 was Active.

For the compound `Nc1ccccc1NC(=O)c1ccc(CNC(=O)OCc2cccnc2)cc1` [ENTINOSTAT], the outcome in the test on MDA-MB-231 [3], with MDA-MB-231 [4], in the test with MDA-MB-231 [5], in the test with MDA-MB-468, with MCF7 and with MDA-MB-231 [6] was Active. The result with MDA-MB-231 [7], in the test with MDA-MB-231 [8] and in the test with MDA-MB-231 [9] was Active. For the same compound, the IC50 was 4.54 µM with HepG2 and 13 µM in [2].
